Test results: US5001160A (priority 1989, dated 1991)
Where a name gives a salt, the structure may show the parent alone.

The compounds below were run against postsynaptic muscarinic cholinergic receptors (bladder detrusor muscle) (Cavia porcellus, UniProt H0W1Z3) (assay: cell-based). Conditions: not given.
Sequence of postsynaptic muscarinic cholinergic receptors (bladder detrusor muscle) (H0W1Z3 1-590): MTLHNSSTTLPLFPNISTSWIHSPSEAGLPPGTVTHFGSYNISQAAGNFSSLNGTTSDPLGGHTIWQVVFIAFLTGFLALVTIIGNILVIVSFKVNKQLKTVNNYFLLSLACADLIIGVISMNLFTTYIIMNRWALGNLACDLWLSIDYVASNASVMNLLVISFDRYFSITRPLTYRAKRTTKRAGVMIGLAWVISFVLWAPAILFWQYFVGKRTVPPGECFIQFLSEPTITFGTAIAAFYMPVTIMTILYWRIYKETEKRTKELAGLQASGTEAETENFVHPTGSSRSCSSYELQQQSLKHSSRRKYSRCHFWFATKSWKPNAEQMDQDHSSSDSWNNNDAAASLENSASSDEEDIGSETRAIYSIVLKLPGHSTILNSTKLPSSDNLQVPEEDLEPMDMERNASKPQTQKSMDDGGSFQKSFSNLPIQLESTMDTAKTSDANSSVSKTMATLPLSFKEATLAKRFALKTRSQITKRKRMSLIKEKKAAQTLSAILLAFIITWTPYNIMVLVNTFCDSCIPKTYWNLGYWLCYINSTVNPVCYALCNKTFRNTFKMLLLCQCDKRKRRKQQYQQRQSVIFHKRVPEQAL
Set-up: species or system guinea pig
CN1CCN(CC(=O)C(O)(c2ccccc2)C2CCCCC2)CC1 (centres unmarked) [1-Cyclohexyl-1-hydroxy-3-(4-methyl-1-piperazinyl)-1-phenyl-2-propanone] was tested, and the Kb was 25.9 ± 5.3 nM. CC(C)=CCN1CCN(CC(=O)C(O)(c2ccccc2)C2CCC2)CC1 (centres unmarked) [1-Cyclobutyl-1-hydroxy-3-[4-(3-methyl-2-butenyl)-1-piperazinyl]-1-phenyl-2-propanone Dihydrochloride] was tested, and the Kb was 19 nM. In the case of Cl.Cl.O=C(CN1CCN(c2ccc([N+](=O)[O-])cc2)CC1)C(O)(c1ccccc1)C1CCC1 (centres unmarked) [1-Cyclobutyl-1-hydroxy-3-[4-(4-nitrophenyl)-1-piperazinyl]-1-phenyl-2-propanone Dihydrochloride], the Kb is reported as “No Effect at 1 μM”. C=CCN1CCN(CC(=O)C(O)(c2ccccc2)C2CCCCC2)CC1 (centres unmarked) [1-Cyclohexyl-1-hydroxy-3-(4-allyl-1-piperazinyl)-1-phenyl-2-propanone Dihydrochloride] was tested, and the Kb was 26 nM. In the case of CCOc1ccccc1N1CCN(CC(=O)C(O)(c2ccccc2)C2CCC2)CC1.Cl.Cl (centres unmarked) [1-Cyclobutyl-1-hydroxy-3-[4-(2-ethoxyphenyl)-1-piperazinyl]-1-phenyl-2-propanone Dihydrochloride], the Kb is reported as “No Effect at 1 μM”. For CCOC(=O)N1CCN(CC(=O)C(O)(c2ccccc2)C2CCC2)CC1.Cl (centres unmarked) [1-Cyclobutyl-1-hydroxy-3-(4-ethoxycarbonyl-1-piperazinyl)-1-phenyl-2-propanone Hydrochloride], the Kb was “No Effect at 1 μM”. With C=CCCN1CCN(CC(=O)C(O)(c2ccccc2)C2CCC2)CC1 (centres unmarked) [1-Cyclobutyl-1-hydroxy-3-[4-(3-butenyl)-1-piperazinyl]-1-phenyl-2-propanoneDihydrochloride] the Kb was 35 nM. For CN1CCN(CC(=O)C(O)(c2ccccc2)C2CCC2)CC1 (centres unmarked) [1-Cyclobutyl-1-hydroxy-3-(4-methyl-1-piperazinyl)-1-phenyl-2-propanone Dihydrochloride], the Kb was 24.9 nM. O=C(CN1CCN(CC(=O)C(O)(c2ccccc2)C2CCC2)CC1)N1CCCC1 (centres unmarked) [1-Cyclobutyl-1-hydroxy-3-(4-pyrrolidino-carbonylmethyl-1-piperazinyl)-1-phenyl-2-propanone Dihydrochloride] gave a Kb of 210 nM. C=CCN1CCN(CC(=O)C(O)(c2ccccc2)C2CCC2)CC1 (centres unmarked) [1-Cyclobutyl-1-hydroxy-3-(4-allyl-1-piperazinyl)-1-phenyl-2-propanone Dihydrochloride] showed a Kb of 65 nM. Compound Cc1ccc(CN2CCN(CC(=O)C(O)(c3ccccc3)C3CCC3)CC2)cc1 (centres unmarked) [1-Cyclobutyl-1-hydroxy-3-[4-(4-methylbenzyl)-]1-piperazinyl]-1-phenyl-2-propanone Dihydrochloride] has a Kb of 9.1 nM. O=C(CN1CCN(Cc2ccc(Cl)cc2)CC1)C(O)(c1ccccc1)C1CCC1 (centres unmarked) [1-Cyclobutyl-1-hydroxy-3-[4-(4-chlorobenzyl)-]1-piperazinyl]-1-phenyl-2-propanone Dihydrochloride] was tested, and the Kb was 16 nM. C=C(C)CN1CCN(CC(=O)C(O)(c2ccccc2)C2CCC2)CC1 (centres unmarked) [1-Cyclobutyl-1-hydroxy-3-[4-(2-methyl-2-propenyl)-1-piperazinyl]1-phenyl-2-propanone Dihydrochloride] showed a Kb of 100 nM. Compound O=C(CN1CCNCC1)C(O)(c1ccccc1)C1CCC1 (centres unmarked) [1-Cyclobutyl-1-hydroxy-1-phenyl-3-piperazinyl-2-propanone Dihydrochloride] has a Kb of 86 nM. O=C(CN1CCN(Cc2ccc([N+](=O)[O-])cc2)CC1)C(O)(c1ccccc1)C1CCC1 (centres unmarked) [1-Cyclobutyl-1-hydroxy-3-[4-(4-nitrobenzyl)-1-piperazinyl]-1-phenyl-2-propanone Dihydrochloride] was tested, and the Kb was 83 nM. With O=C(CN1CCN(C2CCC2)CC1)C(O)(c1ccccc1)C1CCC1 (centres unmarked) [1-Cyclobutyl-1-hydroxy-3-(4-cyclobutyl-1-piperazinyl)-1-phenyl-2-propanone Dihydrochloride] the Kb was 230 nM. In the case of COc1ccccc1N1CCN(CC(=O)C(O)(c2ccccc2)C2CCC2)CC1.Cl.Cl (centres unmarked) [1-Cyclobutyl-1-hydroxy-3-[4-(2-methoxyphenyl)-1-piperazinyl]-1-phenyl-2-propanone Dihydrochloride], the Kb is reported as “No Effect at 1 μM”. In the case of CCCN1CCN(CC(=O)C(O)(c2ccccc2)C2CCC2)CC1 (centres unmarked) [1-Cyclobutyl-1-hydroxy-3-(4-propyl-1-piperazinyl)-1-phenyl-2-propanone Dihydrochloride], the Kb is reported as 673 nM. With Cl.Cl.O=C(CN1CCN(c2ccccc2)CC1)C(O)(c1ccccc1)C1CCC1 (centres unmarked) [1-Cyclobutyl-1-hydroxy-3-(4-phenyl-1-piperazinyl)-1-phenyl-2-propanone Dihydrochloride] the Kb was “No Effect at 1 μM”. Compound O=C(CN1CCN(CCO)CC1)C(O)(c1ccccc1)C1CCC1 (centres unmarked) [1-Cyclobutyl-1-hydroxy-3-[4-(2-hydroxyethyl)-1-piperazinyl]-1-phenyl-2-propanone Dihydrochloride] has a Kb of 201 nM. For O=C(CN1CCN(C(c2ccccc2)c2ccccc2)CC1)C(O)(c1ccccc1)C1CCC1 (centres unmarked) [1-Cyclobutyl-1-hydroxy-3-(4-benzyhydryl-1-piperazinyl)-1-phenyl-2-propanoneDihydrochloride], the Kb was “No Effect at 1 μM”. Compound O=C(CN1CCN(CCO)CC1)C(O)(c1ccccc1)C1CCCCC1 (centres unmarked) [1-Cyclohexyl-1-hydroxy-3-[4-(2-hydroxyethyl)-1-piperazinyl]-1-phenyl-2-propanone Dihydrochloride] has a Kb of 96 nM.

These compounds were tested on bladder contraction (PvesP) (assay: not given). Conditions: guinea pig, in vivo, iv.
For CN1CCN(CC(=O)C(O)(c2ccccc2)C2CCCCC2)CC1 (centres unmarked) [1-Cyclohexyl-1-hydroxy-3-(4-methyl-1-piperazinyl)-1-phenyl-2-propanone], the “T1/2 for recovery toward control level of the PvesP contraction strength parameter” value was 3.6 ± 0.3 h.
